# Experimental data from patent publication US10617750B2, “Partner of SLD five 1 (PSF1)-derived peptide” (Vasculead Inc., priority 2012, dated 2020).
# No end group written: not given here.
# Tests used:
# [1] = system: peptide specific CTL through HLA-A02; assay: Mouse CTL induction assay (IFN-γ ELISPOT after peptide immunization); format: in vivo; settings: CB6F1-Tg (HLA-A0201/H2-Kb) mice, 50 μg peptide/mice, spleen cells two weeks after injection; IFN-γ spots minus negative control peptide
# Description: The mouse CTL inducing activity with peptides was determined by using mouse immune models. Regarding mice, CB6F1-Tg (HLA-A0201/H2-Kb)A0201 was obtained from Taconic Biosciences, Inc. At most five types of peptide solutions dissolved in DMSO were mixed to produce a PBS solution, and the PBS solution was mixed together with the same amount of MONTANIDE ISA 51VG (SEPPIC), thereby producing an emulsion antigen solution. Then, 50 μL of the antigen solution was used for hypodermic injection into each of two sites at both sides of the belly of the mice (50 μg peptide/mice, N=3-4). Two weeks after the injection, spleen was removed, and spleen cells from which erythrocyte had been eliminated with a solution (BD Pharm Lyse™, Becton, Dickinson and Company, La Jolla, Calif.) were collected as responder cells for an ELISPOT assay.
# The ELISPOT assay was conducted by detecting IFN-γ produced from responder cells. The procedure thereof conformed to an accompanying document of an assay kit, Mouse IFN-γ ELISpot^PLUS (MABTECH, Cincinnati, Ohio). Preincubation for the IFN-γ production was performed by adding cells to a 96-well plate included in the assay kit. Stimulator cells were inoculated in a duplicate well or a single well of 5×10^4 cell/100 μL/well, and then responder cells were added to 2×10^6 cell/100 μL/well. After one-night coculture, the cells were removed and the well was washed, and then primary antibodies (biotin-antimouse IFN-γ antibodies) included in the assay kit were added. After reaction for two hours at room temperature, the well was washed, supplemented with secondary antibodies (streptavidin-ALP), and subjected to reaction for one hour at room temperature. After having been sufficiently washed, the cells were supplemented with a substrate solution and left for one minute at room temperature. To terminate coloring reaction, the plate was sufficiently washed with running water and was air-dried.
# The number of blue spots observed at the well bottom was measured with an ImmunoSpot® S5 Verse Analyzer (Cellular Technology Limited, Shaker Heights, Ohio). Measurement values of unclear spots because of a wide range of coloring were not used. An average value was obtained for the duplicate well, and the difference from the negative control was calculated in order to obtain the number of spots specific to peptides. The average value and the SD value were calculated by using values for individual mice, and the case having a positive number of differences between the average value and the SD value was determined as positive.
# [2] = system: peptide specific human CTL; assay: Human CTL induction assay (IFN-γ ELISPOT); format: cell-based; settings: for Positive donor number: HLA-A0201 healthy volunteers, positive = difference of 50 or more peptide specific spots; for Donor positive percentage: positive donors / donors examined
# Description: A human CTL induction assay was conducted under conditions with reference to a known report (Harano et al. Int. J. Cancer 2008; 123:2616-2625).
# Heparinized peripheral blood of healthy volunteers having HLA-A0201 was subjected to centrifugation at 3000 rpm for 20 minutes, thereby removing plasma. Cell pellets were supplemented with HBSS(−) (Wako Pure Chemical Industries, Ltd, Richmond, Va.) to which 5 mM of HEPES (SIGMA, Carlsbad, Calif.) had been added, and were suspended, thereby overlaying the suspension over a Ficoll-paque PREMIUM (GE Healthcare, Ltd., Pittsburgh, Pa.). Then, 400 g of the resulting substance was subjected to centrifugation for 40 minutes, and peripheral blood […] cells (PBMCs) separated as an intermediate layer were collected.
# PBMCs were supplemented with CD14 microbeads (Miltenyi Biotec K.K.), and caused to react at 4° C. for 15 minutes. The cells were passed through LS columns (Miltenyi Biotec K.K., Tokyo, Japan), and CD14-positive cells were obtained by using QuadroMACS™ Separator (Miltenyi Biotec K.K., Tokyo, Japan). The rest of the cells were collected and washed, and then supplemented with CD8 microbeads (Miltenyi Biotec K.K., Tokyo, Japan) and allowed to react at 4° C. for 15 minutes. Thereafter, a similar process is performed, thereby obtaining CD8-positive cells. The CD14-positive cells were subjected to differentiation induction to monocyte-derived dendritic cells (Mo-DCs), and CD8-positive cells were temporarily frozen for storage.
# Since CD8-positive cells were subjected to antigen stimulation twice, peptide-presenting cells were produced twice accordingly. CD14-positive cells were disseminated in two RepCell plates (CellSeed Inc., Tokyo, Japan), and incubated in a 5% CO2 incubator at 37° C. with a culture solution in which 100 ng/ml GM-CSF (R&D Systems, Minneapolis, Minn.) and 10 ng/ml IL-4 (R&D Systems) were added to an AIM-V (Invitrogen Corporation, Carlsbad, Calif.) culture medium including antibiotic and serum.
# First production of peptide-presenting cells was started 5-7 days after the start of incubation. To one of the plates, 0.1 KE/ml OK-432 (Chugai Pharmaceutical Co., Ltd., Tokyo, Japan) was added, and on the next day, cells were collected and inoculated in a 96-well U-bottom plate. Then, 20 μg/ml of assay peptide of one type was added to each half area (48 wells) of the plate, and incubated for one day at 37° C. in a 5% CO2 incubator, thereby producing peptide-presenting cells. Second production was performed similarly on the other plate 12-14 days after the start of incubation.
# Peptide-presenting cells in a 96-well plate were irradiated with X rays (30 Gy), and the frozen stored CD8-positive cells were added to all the wells, thereby performing first antigen stimulation. As a culture solution, a solution in which 10 ng/ml IL-7 (R&D Systems, Minneapolis, Minn.) was added to an AIM-V culture medium including antibiotic and serum was used. After incubation for seven days, cells included in supernatant were collected and cocultured with peptide-presenting cells (after X-ray irradiation) obtained by the second production, thereby performing second antigen stimulation in the 96-well plate. At this time, 20 U/mL of IL-2 (Shionogi & Co., Ltd., Florham Park, N.J.) was added to the culture solution. After further incubation for seven days, cells in supernatant including CTL were collected and washed with an AIM-V culture medium including antibiotic and serum to have a concentration of approximately 2×10^5 cells/ml per well, thereby obtaining responder cells for an ELISPOT assay.
# T2 cells of stimulator cells for use in an ELISPOT assay were produced by incubating the cells for one night in an AIM-V culture medium supplemented with an assay peptide (20 μg/mL). As stimulator cells of a negative control, only T2 cells were used (without peptides). […]
# peptide specific CTL = assay: CTL inducibility of peptides (summary statement); format: cell-based
# Description: According to the embodiments of the present invention, the phrase “having CTL inducibility” means that the peptide is recognized by a specific CTL. In other word, the peptide has an ability to induce a peptide specific CTL. […] The ability to induce the peptide specific CTL can be examined by, for example, determining whether or not a cytokine such as interferon-γ (IFN-γ) is produced by peptide-stimulated peripheral blood mononuclear cells (PBMCs) in response to antigen presenting cells which are pulsed with said peptide using the ELISA technique or the like. In addition, cytotoxic activity of the induced CTL can be determined by the ^51Cr-release assay and the like. The peptide of the present invention is preferred to have 8 to 14, more preferably 8 to 11 and especially, 9 or 10 amino acid residues in view of good recognition by CTL.
# These all three peptides are located in the region from 79 to 100 of PSF1 (FIG. 3). […] (SEQ ID NO.:6) or […] (SEQ ID NO.: 8) or […]
# T2 cells = assay: Human CTL cytotoxic assay; format: cell-based
# Description: Specifically, assay conditions were set with reference to a method described in a known report (New CFSE-based assay to determine susceptibility to lysis by cytotoxic T cells of leukemic precursor cells within a heterogeneous target cell population. Jedema I. et al. Blood 2004; 103:2677-2682).
# As target cells for use in the cytotoxic assay, 1 μM of CellTracker™ Green CMFDA (5-chloromethylfluorescein diacetate) (Invitrogen Corp., Carlsbad, Calif.) was added to T2 cells, and these cells were allowed to react with each other at 37° C. for 15 minutes. The T2 cells were labeled with CMFDA, which is a fluorescent marker, washed with AIM-V, supplemented with assay peptides (20 μg/ml), and incubated for one night. As target cells of a negative control, T2 cells only labeled with a fluorescent marker were used (without peptide addition). The cells were washed with an AIM-V culture medium including antibiotic and serum to have a concentration of 5×10^4 cells/ml.
# The cells were prepared to have concentrations of 50, 15, 5×10^4 cells/ml after washing with AIM-V. The preparation was performed with an AIM-V culture medium including antibiotic and serum.
# Target cells (T) supplemented with peptides used in CTL induction or target cells (T) of a negative control supplemented with no peptides were mixed with effector cells (E) at a cell ratio (E/T ratio) of 10:1, 3:1, and 1:1, and cocultured for one night. Immediately before measurement with a MACS Quant (Miltenyi Biotec, San Diego, Calif.) or a FACS Aria, 0.1 μg/ml of DAPI was added in order to distinguish living cells from dead cells by means of staining. In an analysis, the proportion of DAPI-negative cells (living cells) in target cells labeled with CMFDA was obtained, and the survival rate of target cells was calculated using incubation conditions (only for target cells) where coculture with effector cells was not performed as 100%.
sequence,measurement,setting,value
"SLATYMRSL [PSF1-derived peptide, initiating amino acid no; 120]",Specific spot number (Ave ± SD),[1],70 ± 79
"ALRWEYGSVL [PSF1-derived peptide, initiating amino acid no; 89]",Positive donor number,[2],2
same,Donor positive percentage,[2],100%
same,CTL inducibility,peptide specific CTL,high
same,Survival rate of target cells pulsed with peptide vs not pulsed,"T2 cells; CTL line specific to the peptide cocultured with T2 cells at E:T 1:1, 3:1, 10:1, FIG. 2",decreased to a degree greater than target cells not pulsed with peptides
"EMKALYEQN [PSF1-derived peptide, initiating amino acid number 35]",Positive donor number,[2],1
same,Donor positive percentage,[2],13%
same,Specific spot number (Ave ± SD),[1],6 ± 8
"VLPNALRFHM [PSF1-derived peptide, initiating amino acid no; 97]",Specific spot number (Ave ± SD),[1],127 ± 41
"ALYEQNQDSV [PSF1-derived peptide, initiating amino acid no; 38]",Specific spot number (Ave ± SD),[1],30 ± 15
RALRWEYGSVLPN,cytotoxic activity,T2 cells,particularly high
YLYDRLLRI,cytotoxic activity,T2 cells,particularly high
"GDEGLDITQDMKP [PSF1-derived peptide, initiating amino acid number 130]",Positive donor number,[2],0
same,Donor positive percentage,[2],0%
same,Specific spot number (Ave ± SD),[1],1 ± 2
"FLPRWKCEQL [PSF1-derived peptide, initiating amino acid no; 176]",Specific spot number (Ave ± SD),[1],31 ± 24
"LPAFNEDGLRQV [PSF1-derived peptide, initiating amino acid number 21]",Positive donor number,[2],0
same,Donor positive percentage,[2],0%
same,Specific spot number (Ave ± SD),[1],3 ± 8
"KAMELIREL [PSF1-derived peptide, initiating amino acid no]",Specific spot number (Ave ± SD),[1],22 ± 13
"SLLRNRRCTV [PSF1-derived peptide, initiating amino acid no; 68]",Specific spot number (Ave ± SD),[1],1 ± 2
"YLYDRLLRIR [PSF1-derived peptide, initiating amino acid no; 79]",Specific spot number (Ave ± SD),[1],165 ± 17
same,CTL inducibility,peptide specific CTL,high
"AYLYDRLLRI [PSF1-derived peptide, initiating amino acid no; 78]",Specific spot number (Ave ± SD),[1],23 ± 21
same,CTL inducibility,peptide specific CTL,high
"SLYIEVRCL [PSF1-derived peptide, initiating amino acid no; 145]",Positive donor number,[2],2
same,Donor positive percentage,[2],100%
same,Specific spot number (Ave ± SD),[1],43 ± 24
"CLKDYGEFEV [PSF1-derived peptide, initiating amino acid no; 152]",Specific spot number (Ave ± SD),[1],53 ± 28
LIRNRRCTV,Specific spot number (Ave ± SD),[1],7 ± 9
ALRWEYGSV,cytotoxic activity,T2 cells,particularly high
"RALRWEYGSV [PSF1-derived peptide, initiating amino acid no; 88]",Positive donor number,[2],3
same,Donor positive percentage,[2],60%
same,CTL inducibility,peptide specific CTL,high
"QVLEEMKAL [PSF1-derived peptide, initiating amino acid no; 31]",Specific spot number (Ave ± SD),[1],7 ± 7
